The target of experiment [1] is T1, human CRF receptor I (Homo sapiens, UniProt P34998).
T1 construct: expressed in transfected cells; host or cells: CHO-K1
T1 sequence (P34998 24-415): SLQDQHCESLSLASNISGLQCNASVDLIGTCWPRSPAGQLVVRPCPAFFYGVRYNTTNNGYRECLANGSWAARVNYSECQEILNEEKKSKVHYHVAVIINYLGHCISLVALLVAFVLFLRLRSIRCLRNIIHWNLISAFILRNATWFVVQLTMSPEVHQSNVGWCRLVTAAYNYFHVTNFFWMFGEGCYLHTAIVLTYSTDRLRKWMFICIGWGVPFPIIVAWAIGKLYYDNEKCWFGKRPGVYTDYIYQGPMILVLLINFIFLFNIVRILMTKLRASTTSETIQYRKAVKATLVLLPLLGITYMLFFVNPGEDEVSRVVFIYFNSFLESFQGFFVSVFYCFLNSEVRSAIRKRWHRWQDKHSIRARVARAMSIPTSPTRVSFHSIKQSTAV
Description: Binding assay (125I-CRF, membrane fraction of CHO-K1 cells with forced expression of the receptor). Conditions: 125I-CRF 0.25 nM, room temperature, 2 hours. On the procedure: The forced-expression cell strain of the human CRF receptor I (parent strain is CHO-K1 cell) was cultured until the cell was confluent and collected with a scraper. The collected cells were washed twice with PBS, and were suspended with an ice-colded binding assay buffer (Tris-HCl (50 mM, pH 7.0), EDTA (2 mM, pH 8.0), and MgCl2 (10 mM)). After fractured with a dounce-type homogenizer, the suspended cells were centrifuged at 10,000 g, and a membrane fraction was collected. The collected membrane fraction was resuspended with a little amount of the binding assay buffer, thereafter diluted with the binding assay buffer so as to have a concentration of 1 mg/mL. The obtained membrane fraction was used for a binding assay.
^125I-CRF was diluted with the binding assay buffer so as to have a concentration of 0.5 nM, whereby 50 μL of the diluted ^125I-CRF was added to a siliconized 1.5-mL tube. Next, test drugs diluted at appropriate times, such as DMSO (for general binding) or 100 μM of CRF (for non-specific binding), was added to a […]. Finally, 50 μL of the membrane fraction was added thereto and the reaction was started (final concentration of ^125I-CRF was 0.25 nM). The tube was incubated at room temperature for 2 hours. […] A membrane binding count was measured using a γ counter. The specific binding count was obtained by subtracting the non-specific count from the measured count.

Experiment [2] deals with T1, human CRF receptor I. Put plainly: Receptor antagonistic activity (cyclic AMP assay). To be noted: human/rat CRF stimulation, 37° C., 15 minutes; read-out: IC50 value, antagonistic activity against CRF (accumulated cyclic AMP). The format is cell-based. On the procedure: The forced expression cell strain of the human CRF receptor I was cultured at 37° C. under 5% carbon dioxide and 95% air by using a Ham's F-12 medium (F-12 nutrient mixture) containing 10% bovine fetal serum and 1% antibiotic substance-antifungal agent. On the previous day before the cyclic AMP was measured, the cells were inoculated into a 96-well plate in an amount of 1×10^4 cell/well. On the measurement day, the cells were washed twice with a Ham's F-12 medium, whereby a solution of Ham's F-12 medium/1 mM 3-isobutyl-1-methylxanthine (assay medium) (178 μL) was added to each well. After the incubation at 37° C. for 10 minutes, test drug solutions (2 μL) in various concentrations were added thereto, or DMSO (2 μL) was added to a CRF group and a blank group. An assay medium (20 μL) containing 10 nM human/rat CRF was added to wells of a compound group and the CRF group. An assay medium (20 μL) containing 0.00001% acetic acid was added to the blank group. Each group was further incubated at 37° C. for 15 minutes. […] The accumulated cyclic AMP amounts were calculated by subtracting mean values of corresponding 2 wells in the blank group from that of 2 wells. The IC50 values were calculated with non-linear regression analysis by defining logarithm concentration of the compound as independent variable and an accumulated cyclic AMP amount as dependent variable.

Experiment [3] has as its system swim-stressed SD rat. Put plainly: Elevated plus maze test with swim-stressed rat. Format: in vivo. Conditions: orally, 1 hour before the test. On the procedure:
2 open arms with the same lengths (50×10 cm) and 2 close arms (a 30 cm wall was provided) with the same lengths (50×10 cm) were arranged in orthogonal manner at a height of 50 cm from the floor to provide an elevated crossroad maze system. In 70 cm above the both open arms, white light was provided, whereby illuminance was maintained at constant.
A 7-week-old SD rat (CHARLES RIVER LABORATORIES JAPAN) was forcedly made to swim for 120 seconds in a pool (40×30×38 cm) at 22° C. of water temperature and 25 cm of water depth. After 9 minutes of soaking stress loading, the rat was put on the center of the system. The activity for 5 minutes of the rat was analyzed with an automatic activity-tracking analysis system (EthoVision Version 3.0, Noldus Information Technology) to calculate the dwell time (second) on the open arm.
Note that no soaking stress was loaded on the control group. In addition, 20% Solutol/HS15 (5 mL/Kg) was orally administered to the vehicle group and test drugs in various concentrations were orally administrated to the test drug administration group 1 hour before the test.

pIC50: −log10 of the molar value.

Regarding `CCC(CC)c1cc(C)n2nc(-c3ccc(OC)cc3C)c(C)cc12` [Example 8, 5-(1-ethylpropyl)-2-(4-methoxy-2-methylphenyl)-3,7-dimethylpyrrolo[1,2-b]pyridazine], the results for the negative-log IC50 (pIC50) in experiment [1] and in experiment [2] were 7.79 and 8.31, respectively. Moreover, the “dwell time on the open arm compared to that of the vehicle group” value in experiment [3] (10 mg/kg) and in experiment [3] was “favorably elongated the dwell time on the open arm” throughout.

(Values after patent US20100184771A1, “Bicyclic Heterocyclic Compound” (ONO PHARMACEUTICAL CO., LTD., priority 2005, published 2010).)
